Measurements as given in ChEMBL document CHEMBL3046180, “Antifungal activity of some diaryl ethers” (2007).
The source made the active and inactive calls. The calls are words filed in the database; no cut-off is given here.

Experiments:
[1] = test system: Bipolaris sorokiniana; assay: Growth inhibition of Bipolaris sorokiniana at 50 ug/ml after 4 days by poisoned food technique; assay type: functional; details: 96 h, read-out: GI
[2] = test system: Bipolaris sorokiniana; assay: Growth inhibition of Bipolaris sorokiniana at 500 ug/ml after 4 days by poisoned food technique; assay type: functional; details: 96 h, read-out: GI
[3] = test system: Alternaria brassicae; assay: Growth inhibition of Alternaria brassicae at 50 ug/ml after 4 days by poisoned food technique; assay type: functional; details: 96 h, read-out: GI
[4] = test system: Alternaria brassicae; assay: Growth inhibition of Alternaria brassicae at 500 ug/ml after 4 days by poisoned food technique; assay type: functional; details: 96 h, read-out: GI
[5] = test system: Fusarium oxysporum f. sp. cucumerinum; assay: Growth inhibition of Fusarium oxysporum f. sp. cucumerinum at 50 ug/ml after 4 days by poisoned food technique; assay type: functional; details: 96 h, read-out: GI
[6] = test system: Fusarium oxysporum f. sp. cucumerinum; assay: Growth inhibition of Fusarium oxysporum f. sp. cucumerinum at 500 ug/ml after 4 days by poisoned food technique; assay type: functional; details: 96 h, read-out: GI
[7] = test system: Fusarium oxysporum f. sp. vasinfectum; assay: Growth inhibition of Fusarium oxysporum f. sp. vasinfectum at 50 ug/ml after 4 days by poisoned food technique; assay type: functional; details: 96 h, read-out: GI
[8] = test system: Fusarium oxysporum f. sp. vasinfectum; assay: Growth inhibition of Fusarium oxysporum f. sp. vasinfectum at 500 ug/ml after 4 days by poisoned food technique; assay type: functional; details: 96 h, read-out: GI
[9] = test system: Pyricularia oryzae; assay: Growth inhibition of Magnaporthe oryzae at 50 ug/ml after 4 days by poisoned food technique; assay type: functional; details: 96 h, read-out: GI
[10] = test system: Pyricularia oryzae; assay: Growth inhibition of Magnaporthe oryzae at 500 ug/ml after 4 days by poisoned food technique; assay type: functional; details: 96 h, read-out: GI
[11] = test system: Alternaria alternata; assay: Growth inhibition of Alternaria alternata at 50 ug/ml after 4 days by poisoned food technique; assay type: functional; details: 96 h, read-out: GI
[12] = test system: Fusarium graminearum; assay: Growth inhibition of Fusarium graminearum at 500 ug/ml after 4 days by poisoned food technique; assay type: functional; details: 96 h, read-out: GI
[13] = test system: Alternaria alternata; assay: Growth inhibition of Alternaria alternata at 500 ug/ml after 4 days by poisoned food technique; assay type: functional; details: 96 h, read-out: GI
[14] = test system: Fusarium graminearum; assay: Growth inhibition of Fusarium graminearum at 50 ug/ml after 4 days by poisoned food technique; assay type: functional; details: 96 h, read-out: GI
[15] = test system: Fusarium graminearum; assay: Antifungal activity against Fusarium graminearum assessed as mycelial growth inhibition at 250 to 500 ug/ml after 4 days by poisoned food technique; assay type: functional, organism-based

## Cc1cccc(Oc2ccccc2[N+](=O)[O-])c1
[1]
  inhibition of growth at 50 µg/mL: 85.5%
[2]
  inhibition of growth at 500 µg/mL: 58.5%
[3]
  inhibition of growth at 50 µg/mL: 58.9%
[4]
  inhibition of growth at 500 µg/mL: 73.9%
[5]
  inhibition of growth at 50 µg/mL: 50.2%
[6]
  inhibition of growth at 500 µg/mL: 46%
[7]
  inhibition of growth at 50 µg/mL: 53.2%
[8]
  inhibition of growth at 500 µg/mL: 46.7%
[9]
  inhibition of growth at 50 µg/mL: 56.3%
[10]
  inhibition of growth at 500 µg/mL: 82.8%
[11]
  inhibition of growth at 50 µg/mL: 49%
[12]
  inhibition of growth at 500 µg/mL: 70.1%
[13]
  inhibition of growth at 500 µg/mL: 74.5%
[14]
  inhibition of growth at 50 µg/mL: 38.8%

## O=[N+]([O-])c1ccccc1Oc1ccc(Cl)cc1
[1]
  inhibition of growth at 50 µg/mL: 79.9%
[2]
  inhibition of growth at 500 µg/mL: 40.9%
[3]
  inhibition of growth at 50 µg/mL: 61%
[4]
  inhibition of growth at 500 µg/mL: 74.3%
[5]
  inhibition of growth at 50 µg/mL: 44.9%
[6]
  inhibition of growth at 500 µg/mL: 50.2%
[7]
  inhibition of growth at 50 µg/mL: 40.3%
[8]
  inhibition of growth at 500 µg/mL: 47.5%
[9]
  inhibition of growth at 50 µg/mL: 48.3%
[10]
  inhibition of growth at 500 µg/mL: 69%
[11]
  inhibition of growth at 50 µg/mL: 51.8%
[12]
  inhibition of growth at 500 µg/mL: 73.6%
[13]
  inhibition of growth at 500 µg/mL: 71.7%
[14]
  inhibition of growth at 50 µg/mL: 59.7%

## O=[N+]([O-])c1ccccc1Oc1ccccc1Cl
[1]
  inhibition of growth at 50 µg/mL: 88.7%
[2]
  inhibition of growth at 500 µg/mL: 71.1%
[3]
  inhibition of growth at 50 µg/mL: 64.5%
[4]
  inhibition of growth at 500 µg/mL: 76.2%
[5]
  inhibition of growth at 50 µg/mL: 48%
[6]
  inhibition of growth at 500 µg/mL: 53.8%
[7]
  inhibition of growth at 50 µg/mL: 59.7%
[8]
  inhibition of growth at 500 µg/mL: 58%
[9]
  inhibition of growth at 50 µg/mL: 51%
[10]
  inhibition of growth at 500 µg/mL: 71.6%
[11]
  inhibition of growth at 50 µg/mL: 52.8%
[12]
  inhibition of growth at 500 µg/mL: 78.6%
[13]
  inhibition of growth at 500 µg/mL: 74%
[14]
  inhibition of growth at 50 µg/mL: 65.2%

## O=[N+]([O-])c1ccc(Oc2ccc([N+](=O)[O-])cc2)cc1 [4,4'-OXYBIS(NITROBENZENE)]
[1]
  inhibition of growth at 50 µg/mL: 20.4%
[2]
  inhibition of growth at 500 µg/mL: 16.7%
[3]
  inhibition of growth at 50 µg/mL: 36.8%
[4]
  inhibition of growth at 500 µg/mL: 75.2%
[5]
  inhibition of growth at 50 µg/mL: 38%
[6]
  inhibition of growth at 500 µg/mL: 50.9%
[7]
  inhibition of growth at 50 µg/mL: 57.6%
[8]
  inhibition of growth at 500 µg/mL: 63.6%
[9]
  inhibition of growth at 50 µg/mL: 1.9%
[10]
  inhibition of growth at 500 µg/mL: 36.6%
[11]
  inhibition of growth at 50 µg/mL: 15%
[12]
  inhibition of growth at 500 µg/mL: 3.1%
[13]
  inhibition of growth at 500 µg/mL: 19.8%
[14]
  inhibition of growth at 50 µg/mL: 13.6%

## CC(C)(C)c1ccc(Oc2ccccc2C#N)cc1
[1]
  inhibition of growth at 50 µg/mL: 42.8%
[2]
  inhibition of growth at 500 µg/mL: 38.4%
[3]
  inhibition of growth at 50 µg/mL: 43.5%
[4]
  inhibition of growth at 500 µg/mL: 53.3%
[5]
  inhibition of growth at 50 µg/mL: 20.4%
[6]
  inhibition of growth at 500 µg/mL: 33.3%
[7]
  inhibition of growth at 50 µg/mL: 20.1%
[8]
  inhibition of growth at 500 µg/mL: 44.3%
[9]
  inhibition of growth at 50 µg/mL: 43.7%
[10]
  inhibition of growth at 500 µg/mL: 43.1%
[11]
  inhibition of growth at 50 µg/mL: 35.8%
[12]
  inhibition of growth at 500 µg/mL: 56%
[13]
  inhibition of growth at 500 µg/mL: 51%
[14]
  inhibition of growth at 50 µg/mL: 38.3%

## O=[N+]([O-])c1ccccc1Oc1ccccc1
[1]
  inhibition of growth at 50 µg/mL: 95%
[2]
  inhibition of growth at 500 µg/mL: 30.2%
[15]
  growth inhibition (GI): Active
[3]
  inhibition of growth at 50 µg/mL: 79%
[4]
  inhibition of growth at 500 µg/mL: 87.9%
[5]
  inhibition of growth at 50 µg/mL: 55.6%
[6]
  inhibition of growth at 500 µg/mL: 65.3%
[7]
  inhibition of growth at 50 µg/mL: 70.1%
[8]
  inhibition of growth at 500 µg/mL: 70.9%
[9]
  inhibition of growth at 50 µg/mL: 58%
[10]
  inhibition of growth at 500 µg/mL: 92%
[11]
  inhibition of growth at 50 µg/mL: 62.2%
[12]
  inhibition of growth at 500 µg/mL: 94%
[13]
  inhibition of growth at 500 µg/mL: 95.3%
[14]
  inhibition of growth at 50 µg/mL: 64.9%

## O=[N+]([O-])c1ccc(Oc2ccc(Cl)cc2)cc1
[1]
  inhibition of growth at 50 µg/mL: 78.1%
[2]
  inhibition of growth at 500 µg/mL: 74.3%
[3]
  inhibition of growth at 50 µg/mL: 42.7%
[4]
  inhibition of growth at 500 µg/mL: 47.2%
[5]
  inhibition of growth at 50 µg/mL: 34.1%
[6]
  inhibition of growth at 500 µg/mL: 38%
[7]
  inhibition of growth at 50 µg/mL: 41.4%
[8]
  inhibition of growth at 500 µg/mL: 43.4%
[9]
  inhibition of growth at 50 µg/mL: 47.6%
[10]
  inhibition of growth at 500 µg/mL: 63.8%
[11]
  inhibition of growth at 50 µg/mL: 47.4%
[12]
  inhibition of growth at 500 µg/mL: 66.8%
[13]
  inhibition of growth at 500 µg/mL: 61.3%
[14]
  inhibition of growth at 50 µg/mL: 63%

## CC(C)(C)c1ccc(Oc2ccccc2[N+](=O)[O-])cc1
[1]
  inhibition of growth at 50 µg/mL: 50.3%
[2]
  inhibition of growth at 500 µg/mL: 38.7%
[3]
  inhibition of growth at 50 µg/mL: 38.4%
[4]
  inhibition of growth at 500 µg/mL: 37.4%
[5]
  inhibition of growth at 50 µg/mL: 8.4%
[6]
  inhibition of growth at 500 µg/mL: 17.3%
[7]
  inhibition of growth at 50 µg/mL: 19.3%
[8]
  inhibition of growth at 500 µg/mL: 11.2%
[9]
  inhibition of growth at 50 µg/mL: 37.9%
[10]
  inhibition of growth at 500 µg/mL: 44.8%
[11]
  inhibition of growth at 50 µg/mL: 33%
[12]
  inhibition of growth at 500 µg/mL: 52.7%
[13]
  inhibition of growth at 500 µg/mL: 53.3%
[14]
  inhibition of growth at 50 µg/mL: 38.8%
